Here are results for one molecule from patent US20140309295A1, “ANTIEPILEPTIC, HYPOCHOLESTEROLEMIC AND NEUROPROTECTIVE COMPOUND” (NEURON BIOPHARMA, S.A., priority 2009, published 2014).

One experiment concerns Zucker rats. Put plainly: Hypolipidemic effect in genetically obese Zucker rats, oral 7 days. It counts as in vivo. As to conditions: 30 mg/kg oral. As to the method: All the animals included for the experimental process were 11 week-old male Zucker rats. The experiments were conducted strictly following the Guidance on the Operation of Animals (Scientific Procedures, Act. 1986). The animals had their respective quarantine period and were treated with maximum precaution to minimize possible contaminations for inoculations and handling.
After a conditioning to the diet, 30 mg/kg of NST0021 or NST0037 were orally administered to the […] at the same time (15.00 to 18.00 h) for 7 consecutive days, using in both cases 0.5% carboxy methylcellulose in water as a vehicle. The control group received this same vehicle. Before starting the treatments and at 7 days therefrom, blood was extracted by lingual puncture under anesthesia after fasting for 16 hours. The plasma was obtained from said blood, in which the total cholesterol, HDL-c, LDL-c, VLDL-c, and triglyceride (TG) levels were evaluated by enzymatic and spectrophotometric techniques. In order to check if the effect at the lipid level involved an alteration of the oxidative stress, the redox state in the plasmas obtained was furthermore evaluated by means of the TEAC (Trolox Antioxidant Capacity Assay) technique. This technique determines the antioxidant capacity in vitro, giving an idea of the redox state of the sample analyzed by means of the absorbance capacity by electron transfer. The different components of the reaction, myoglobin, ABTS (2,2-azino-bis-(3-ethylbenzthiazoline-sulfonic acid) and hydrogen peroxide were added to the plasmas diluted 1/10 in PBS (10 μL) in a 96-well plate. After 3 minutes of incubation, the absorbance was measured at 405 nm (with a reference of 600 nm).

The test system of experiment [1] is FVB/NHan mice inoculated with kainate (KA). Put plainly: Integral memory test (temporal and spatial memory) in mice after kainate. It counts as in vivo. As to the method:
All the animals included for the experimental process were 12-week old males of the FVB/NHan strain. The experiments were conducted strictly following the Guidance on the Operation of Animals (Scientific Procedures, Act. 1986). The animals had their respective quarantine period and were treated with maximum precaution to minimize possible contaminations for inoculations and handling.
Twenty-eight animals were used in this assay and the treatments were all conducted by intraperitoneal (i.p.) route with a volume of 100 μl, according to the following regimens: • i) PBS+PBS+PBS regimen: 4 animals were initially treated with PBS with a daily dose for 2 days, on the second day the animals were inoculated with a new dose of PBS and for the following 3 days with a daily dose of PBS. • ii) PBS+KA+PBS regimen: 6 animals were initially treated with PBS with a daily dose for 2 days, on the second day the animals were inoculated with a dose of kainate at 25 mg/Kg and for the following 3 days with a daily dose of PBS. • iii) PBS+KA+NST0037 regimen: 7 animals were initially treated with PBS with a daily dose for 2 days, on the second day the animals were inoculated with a dose of kainate at 25 mg/Kg and for the following 3 days with a daily dose of NST0037 at 50 mg/kg. • iv) NST0037+KA+NST0037 regimen: 6 animals were initially treated with a daily dose for 2 days with NST0037 at 50 mg/kg, on the second day the animals were inoculated with a dose of kainate at 25 mg/Kg and for the following 3 days with a daily dose of NST0037 at 50 mg/kg. • v) NST0037+PBS+NST0037 regimen: 5 animals were initially treated with a daily dose for 2 days with NST0037 at 50 mg/kg, on the second day the animals were inoculated with a dose of PBS and for the following 3 days with a daily dose of NST0037 at 50 mg/kg.
Three days after inoculation of KA, an object recognition test called integral memory test was performed on the animals.

For experiment [2], the system named is human neuroblastoma SK-N-MC cells. Put plainly: Protection against neuronal death induced by inhibition of PP1 (okadaic acid), WST-1. As to conditions: 40 μM NST0037; 20 nM okadaic acid. It counts as cell-based. As to the method: The assay was performed on human neuroblastoma SK-N-MC cells in culture from the American Type Culture Collection (ATCC), in all cases strict rules of sterility were followed and the manipulation was performed in class II biological safety cabinets following European standard EN 12469. The cells were maintained in the following culture medium: Minimum Essential Medium Eagle (MEM) supplemented with 1 mM sodium pyruvate, 2 mM L-glutamine, 0.1 mM non-essential amino acids, 0.05 mg/ml gentamicin and 10% fetal bovine serum.
The inhibition caused by compound NST0037 of cell death caused by the treatment with okadaic acid (OA) which inhibits the activity of protein phosphatase 1 (PP1) was analyzed. OA is one of the most used drugs for studying the phosphorylation mechanism of the tau protein, involved in the pathogenesis and progression of AD. The inhibition of PP1 causes cytoskeleton alterations and mitochondrial damage. […]
The cells were incubated (at 37° C. and 5% CO2) with these treatments for 22 hours, after which time the WST-1 reagent (Roche) was added. […] The formazan which is formed can be detected colorimetrically since it has an absorbance of 440 nm. The reading was taken in a plate reader at 440 nm 2 hours after adding the reagent.
For orientation: Tetrazolium dyes change colour on reduction, which living cells bring about.

In the case of `CCC(CC)C(=O)O[C@H]1C[C@@H](C)C=C2C=C[C@H](C)[C@H](CC[C@@H]3C[C@@H](O)CC(=O)O3)[C@H]21` [NST0037, (1S,2S,6R,8S,8aR)-1,2,6,7,8,8a-hexahydro-3,7-dimethyl-8-[2-[(2R,4R)-tetrahydro-4-hydroxy-6-oxo-2H-pyran-2-yl]ethyl]-1-naphthalenyl-2-ethyl-butyrate], the HDL result in the experiment on Zucker rats is “increase of HDL”. Moreover, the “oxidative stress (redox state in plasma, TEAC)” value in the experiment on Zucker rats was “drastic reduction”. Also, the plasma triglyceride levels entry in the experiment on Zucker rats was “reduced the plasma triglyceride levels”. The “plasma LDL levels” value with Zucker rats (male Zucker rats) is given as “equally reducing the plasma LDL levels”. Moreover, the spatial memory entry in experiment [1] (NST0037+KA+NST0037 regimen, 50 mg/kg i.p.) is reported as “spatial memory is intact”; in experiment [1] (NST0037+PBS+NST0037 regimen), “spatial memory is intact”; in experiment [1] (PBS+KA+NST0037 regimen, 50 mg/kg i.p.), “improvement of this type of memory”. Further, the temporal memory entry in experiment [1] (NST0037+KA+NST0037 regimen, 50 mg/kg i.p., 3 days after KA) is given as “prevented the reduction in the temporal memory capacity”; in experiment [1] (NST0037+PBS+NST0037 regimen, vs PBS+PBS+PBS), “improvement of the temporal memory”; in experiment [1] (PBS+KA+NST0037 regimen, 50 mg/kg i.p., 3 days after KA), “improvement of the state of the temporal memory”. Moreover, the “protection against death caused by OA” value in experiment [2] amounted to 57%.
